Source: patent publication US20040171090A1, “Anti-tumor antigen against HTLV-I tumor or antigen epitope thereof” (priority 2001, published 2004)
Peptide text beside a SMILES is read from it.

Tests used:
[1] = tested on: HTLV-I-infected tumor cells, FPM1-V1AX; experiment: Vaccine effect: splenic T cells of immunized nu/+ rats transferred to nu/nu rats given FPM1-V1AX, tumor volume; type: in vivo, rat; settings: nu/+ rats immunized subcutaneously twice, two-week interval, 100 μg peptide and/or ISS-ODN
[2] = tested on: HTLV-I-specific CTL cell lines; settings: for cytotoxic activity of HTLV-I-specific CTL cell lines against target cells sensitized with peptide (FIG. 6): 15-24 mer peptides 10 μM, 37° C. 1 hour, release assay 6 hours; for cytotoxic activity of HTLV-I-specific CTL cell lines against target cells sensitized with peptide (FIG. 6) / cytotoxicity of long-term-cultured CTL cell lines against target cells sensitized with peptide (FIG. 7) / peptide concentration necessary to induce cytotoxic activity of the same extent as Tax 180-188: E/T 10; for cytotoxicity of long-term-cultured CTL cell lines against target cells sensitized with peptide (FIG. 7): peptides 10 μM; for peptide concentration necessary to induce cytotoxic activity of the same extent as Tax 180-188: G14 cells treated 1 hour with serially diluted peptide

Row | Molecule | cytotoxic activity of HTLV-I-specific CTL cell lines against target cells sensitized with peptide (FIG. 6) ([2]; G14 cells) | also measured
1 | 5′-TGACTGTGAACGTTCGAGATGA-3′ [ISS-ODN] |  | suppression effect on tumor proliferation by splenic T cells from immunized rats (tumor volume, FIG. 12) [1]: not recognized
2 | CC[C@H](C)[C@H](NC(=O)[C@H](CCCCN)NC(=O)[C@H](Cc1ccc(O)cc1)NC(=O)[C@H](CC(C)C)NC(=O)[C@H](CC(C)C)NC(=O)[C@H](CCC(=O)O)NC(=O)[C@H](CCC(=O)O)NC(=O)[C@@H](NC(=O)[C@H](CCCNC(=N)N)NC(=O)[C@H](CCCCN)NC(=O)[C@H](Cc1ccc(O)cc1)NC(=O)[C@@H]1CCCN1C(=O)[C@@H](NC(=O)[C@H](CC(N)=O)NC(=O)[C@@H](NC(=O)[C@H](CC(C)C)NC(=O)[C@H](Cc1ccccc1)NC(=O)[C@H](C)NC(=O)CNC(=O)[C@H](CC(C)C)NC(=O)[C@H](CCC(N)=O)NC(=O)CN)[C@@H](C)O)C(C)C)[C@@H](C)CC)C(=O)N[C@@H](CO)C(=O)N[C@@H](CC(C)C)C(=O)O [Tax 177-200] | effectively dissolve | cytotoxicity of long-term-cultured CTL cell lines against target cells sensitized with peptide (FIG. 7) ([2]; G14 cells): notably dissolved
3 | CC(C)C[C@H](NC(=O)[C@H](Cc1ccccc1)NC(=O)[C@H](C)N)C(=O)N[C@H](C(=O)N[C@@H](CC(N)=O)C(=O)N[C@H](C(=O)N1CCC[C@H]1C(=O)N[C@@H](Cc1ccc(O)cc1)C(=O)N[C@@H](CCCCN)C(=O)O)C(C)C)[C@@H](C)O [Tax 181-189] (H-AFLTNVPYK-OH; N-terminus and C-terminus assumed) |  | peptide concentration necessary to induce cytotoxic activity of the same extent as Tax 180-188 [2]: 1 µM
4 | CC[C@H](C)[C@H](NC(=O)[C@H](CCCNC(=N)N)NC(=O)[C@H](CCCCN)NC(=O)[C@H](Cc1ccc(O)cc1)NC(=O)[C@@H]1CCCN1C(=O)[C@@H](NC(=O)[C@H](CC(N)=O)NC(=O)[C@@H](NC(=O)[C@H](CC(C)C)NC(=O)[C@H](Cc1ccccc1)NC(=O)[C@H](C)N)[C@@H](C)O)C(C)C)C(=O)N[C@@H](CCC(=O)O)C(=O)N[C@@H](CCC(=O)O)C(=O)N[C@@H](CC(C)C)C(=O)N[C@@H](CC(C)C)C(=O)O [Tax 181-195] | effectively dissolve | cytotoxicity of long-term-cultured CTL cell lines against target cells sensitized with peptide (FIG. 7) ([2]; G14 cells): notably dissolved
5 | CC(C)C[C@H](NC(=O)[C@@H](N)Cc1ccccc1)C(=O)N[C@H](C(=O)N[C@@H](CC(N)=O)C(=O)N[C@H](C(=O)N1CCC[C@H]1C(=O)N[C@@H](Cc1ccc(O)cc1)C(=O)N[C@@H](CCCCN)C(=O)N[C@@H](CCCNC(=N)N)C(=O)O)C(C)C)[C@@H](C)O [Tax 182-190] (H-FLTNVPYKR-OH; N-terminus and C-terminus assumed) |  | peptide concentration necessary to induce cytotoxic activity of the same extent as Tax 180-188 [2]: 10 µM
6 | LGAFLTNVP [Tax 179-187] |  | CTL sensitivity of target cells sensitized with 9 amino acid synthetic peptides (FIG. 8) ([2]; G14 cells, 9 mer peptides, same method as for the 15-24 mers): exhibited CTL sensitivity
7 | Tax 17-40: partially overlapping synthetic peptide (15-24 mers), partial peptide in the Tax protein (VYVFGDCVQGDWCPISGGLCSARL) | low cytotoxic activity | 
8 | Tax 33-56: partially overlapping synthetic peptide (15-24 mers), partial peptide in the Tax protein (GGLCSARLHRHALLATCPEHQITW) | low cytotoxic activity | 
9 | Tax 81-104: partially overlapping synthetic peptide (15-24 mers), partial peptide in the Tax protein (QRTSKTLKVLTPPITHTTPNIPPS) | low cytotoxic activity | 
10 | Tax 97-120: partially overlapping synthetic peptide (15-24 mers), partial peptide in the Tax protein (TTPNIPPSFLQAMRKYSPFRNGYM) | low cytotoxic activity | 
